Assay results reported in US20070049564A1 (Wyeth, priority 2005, published 2007).
Values after ≈ are worked out from the molar mass of the structure shown. Like-named read-outs stand apart in the source and are kept apart here.

Assays:
S. aureus GC 1079 = assay: MIC, broth microdilution; details: Staphylococcus aureus, GC1079, S. aureus GC 1079
E. coli = assay: Range of MIC for E. coli strains; details: Escherichia coli
E. faecalis GC 4555 = assay: MIC, broth microdilution; details: Enterococcus faecalis, GC4555, E. faecalis GC 4555
E. coli GC 2233 = assay: MIC, broth microdilution; details: Escherichia coli, GC2233, E. coli GC 2233
E. coli GC 2236 = assay: MIC, broth microdilution; details: Escherichia coli, GC2236, E. coli GC 2236
E. faecium GC 2243 = assay: MIC, broth microdilution; details: Enterococcus faecium, GC2243, E. faecium GC 2243
c. albicans GC 3066 = assay: MIC, broth microdilution
E. coli GC 2271 = assay: MIC, broth microdilution; details: Escherichia coli, GC2271, E. coli GC 2271
S. pyogenes GC 4563 = assay: MIC, broth microdilution; details: Streptococcus pyogenes, GC4563, S. pyogenes GC 4563
Staph. = assay: Range of MIC for Staph. strains, including MRSA; details: Staphylococcus aureus
S. agalactiae GC 4564 = assay: MIC, broth microdilution; details: Streptococcus agalactiae, GC4564, S. agalactiae GC 4564
E. coli GC 3226 = assay: MIC, broth microdilution; details: Escherichia coli, GC3226, E. coli GC 3226
Experimental: (§1) Antimicrobial susceptibility testing. The in vitro activities of the antibiotics are determined by the broth microdilution method as recommended by the National Committee for Clinical Laboratory Standards (NCCLS) (1). Mueller-Hinton II broth (MHBII)(BBL Cockeysville, Md.) is the medium employed in the testing procedures. Microtiter plates containing serial dilutions of each antimicrobial agent are inoculated with each organism to yield the appropriate density (10^5 CFU/ml) in a 100 μl final volume. The plates are incubated for 18-22 hours at 35° C. in ambient air.
(§2) Representative compounds were first incubated in mouse serum for an hour prior to the in vitro testing against a panel of selected gram-positive and gram-negative bacteria strains. All compounds were also pre-incubated in water for an hour prior to testing as control. Representative compounds of Formula I were incubated in human serum prior to MIC determination.

E. faecalis GC 2265 = assay: MIC, broth microdilution; details: Enterococcus faecalis, GC2265, E. faecalis GC 2265
S. aureus GC 6469 = assay: MIC, broth microdilution; details: Staphylococcus aureus, GC6469, S. aureus GC 6469
E. coli GC 1073 = assay: MIC, broth microdilution; details: Escherichia coli, GC1073, E. coli GC 1073
E. faecium GC 4556 = assay: MIC, broth microdilution; details: Enterococcus faecium, GC4556, E. faecium GC 4556
S. typhimurium GC 2172 = assay: MIC, broth microdilution; details: Salmonella enterica, TYPHIMURIUM, S. typhimurium GC 2172
Experimental: as §1
Representative compounds were first incubated in mouse serum for an hour prior to the in vitro testing against a panel of selected gram-positive and gram-negative bacteria strains. All compounds were also pre-incubated in water for an hour prior to testing as control.

E. coli GC 2235 = assay: MIC, broth microdilution; details: Escherichia coli, GC2235, E. coli GC 2235
S. aureus GC 6335 = assay: MIC, broth microdilution; details: Staphylococcus aureus, GC6335, S. aureus GC 6335
E. coli GC 2270 = assay: MIC, broth microdilution; details: Escherichia coli, GC2270, E. coli GC 2270
Experimental: as §1, §2

## CCCCN(CC(=O)Nc1cc(N(C)C)c2c(c1O)C(=O)C1=C(O)[C@]3(O)C(=O)C(C(N)=O)=C(O)[C@@H](N(C)C)[C@@H]3C[C@@H]1C2)C(=O)OCOC(=O)c1ccc(F)cc1 [Example 4, ({[(2-{[(5aR,6aS,7S,10aS)-9-(aminocarbonyl)-4,7-bis(dimethylamino)-1,8,10a,11-tetrahydroxy-10,12-dioxo-5,5a,6,6a,7,10,10a,12-octahydrotetracen-2-yl]amino}-2-oxoethyl)(butyl)amino]carbonyl}oxy)methyl 4-fluorobenzoate]
S. aureus GC 1079; Mouse Serum pre-incubation
  MIC: 1 µg/mL (≈ 1.28 µM)
S. aureus GC 1079; Water pre-incubation
  MIC: 4 µg/mL (≈ 5.12 µM)
E. coli; 20 h, read-out: Range of MIC, E. coli (Mouse Serum)
  MIC: 0.5 to 2 µg/mL (≈ 0.64 to 2.56 µM)
E. coli; read-out: Minimum inhibitory concentration (MIC), E. coli (Human Serum)
  MIC: 8 to 32 µg/mL (≈ 10.2 to 40.9 µM)
E. coli; read-out: Minimum inhibitory concentration (MIC), E. coli (mouse serum)
  MIC: 0.5 to 2 µg/mL (≈ 0.64 to 2.56 µM)
E. faecalis GC 4555; Mouse Serum pre-incubation
  MIC: 1 µg/mL (≈ 1.28 µM)
E. faecalis GC 4555; Water pre-incubation
  MIC: 8 µg/mL (≈ 10.2 µM)
E. coli GC 2233; Mouse Serum pre-incubation
  MIC: 1 µg/mL (≈ 1.28 µM)
E. coli GC 2233; Water pre-incubation
  MIC: 64 µg/mL (≈ 81.9 µM)
E. coli GC 2236; Mouse Serum pre-incubation
  MIC: 1 µg/mL (≈ 1.28 µM)
E. coli GC 2236; Water pre-incubation
  MIC: 64 µg/mL (≈ 81.9 µM)
E. faecium GC 2243; Mouse Serum pre-incubation
  MIC: 0.5 µg/mL (≈ 0.64 µM)
E. faecium GC 2243; Water pre-incubation
  MIC: 2 µg/mL (≈ 2.56 µM)
c. albicans GC 3066; Candida albicans, GC3066
  MIC: > 64 µg/mL
c. albicans GC 3066; c. albicans GC 3066, Water pre-incubation
  MIC: >64 UG/ML
E. coli GC 2271; Mouse Serum pre-incubation
  MIC: 0.5 µg/mL (≈ 0.64 µM)
E. coli GC 2271; Water pre-incubation
  MIC: 64 µg/mL (≈ 81.9 µM)
S. pyogenes GC 4563; Mouse Serum pre-incubation
  MIC: 0.12 µg/mL (≈ 0.153 µM)
S. pyogenes GC 4563; Water pre-incubation
  MIC: 0.25 µg/mL (≈ 0.32 µM)
Staph.; MRSA, read-out: Minimum inhibitory concentration (MIC), Staph. (mouse serum)
  MIC: 0.5 to 2 µg/mL (≈ 0.64 to 2.56 µM)
Staph.; MRSA, read-out: Minimum inhibitory concentration (MIC), Staph. (water)
  MIC: 2 to 16 µg/mL (≈ 2.56 to 20.5 µM)
Staph.; MRSA, read-out: Range of MIC, Staph (Mouse Serum)
  MIC: 0.5 to 2 µg/mL (≈ 0.64 to 2.56 µM)
Staph.; MRSA, read-out: Range of MIC, Staph (Water)
  MIC: 2 to 16 µg/mL (≈ 2.56 to 20.5 µM)
Staph.; read-out: Minimum inhibitory concentration (MIC), Staph (Human Serum)
  MIC: 0.5 to 4 µg/mL (≈ 0.64 to 5.12 µM)
Staph.; read-out: Minimum inhibitory concentration (MIC), Staph (Water)
  MIC: 2 to 8 µg/mL (≈ 2.56 to 10.2 µM)
S. agalactiae GC 4564; Mouse Serum pre-incubation
  MIC: 0.25 µg/mL (≈ 0.32 µM)
S. agalactiae GC 4564; Water pre-incubation
  MIC: 0.5 µg/mL (≈ 0.64 µM)
E. coli GC 3226; Mouse Serum pre-incubation
  MIC: 2 µg/mL (≈ 2.56 µM)
E. coli GC 3226; Water pre-incubation
  MIC: 64 µg/mL (≈ 81.9 µM)
E. faecalis GC 2265; Mouse Serum pre-incubation
  MIC: 2 µg/mL (≈ 2.56 µM)
E. faecalis GC 2265; Water pre-incubation
  MIC: 8 µg/mL (≈ 10.2 µM)
S. aureus GC 6469; Mouse Serum pre-incubation
  MIC: 2 µg/mL (≈ 2.56 µM)
S. aureus GC 6469; Water pre-incubation
  MIC: 16 µg/mL (≈ 20.5 µM)
E. coli GC 1073; Mouse Serum pre-incubation
  MIC: 1 µg/mL (≈ 1.28 µM)
E. coli GC 1073; Water pre-incubation
  MIC: > 64 µg/mL
E. faecium GC 4556; Mouse Serum pre-incubation
  MIC: 1 µg/mL (≈ 1.28 µM)
E. faecium GC 4556; Water pre-incubation
  MIC: 4 µg/mL (≈ 5.12 µM)
S. typhimurium GC 2172; Mouse Serum pre-incubation
  MIC: 4 µg/mL (≈ 5.12 µM)
S. typhimurium GC 2172; Water pre-incubation
  MIC: > 64 µg/mL
E. coli GC 2235; Mouse Serum pre-incubation
  MIC: 1 µg/mL (≈ 1.28 µM)
E. coli GC 2235; Water pre-incubation
  MIC: 64 µg/mL (≈ 81.9 µM)
S. aureus GC 6335; Mouse Serum pre-incubation
  MIC: 1 µg/mL (≈ 1.28 µM)
S. aureus GC 6335; Water pre-incubation
  MIC: 4 µg/mL (≈ 5.12 µM)
E. coli GC 2270; Mouse Serum pre-incubation
  MIC: 1 µg/mL (≈ 1.28 µM)
E. coli GC 2270; Water pre-incubation
  MIC: 64 µg/mL (≈ 81.9 µM)
